Assay results reported in patent publication US20050281879A1, “Excipients in drug delivery vehicles” (priority 2003, published 2005).
Structures can show the parent of a compound that is named as a salt.

Key:
[1] = Saturation concentration of bupivacaine hydrochloride in de-ionized water; type: physicochemical; settings: DI water
Method: Bupivacaine hydrochloride (Sigma-Aldrich Corporation, St. Louis, Mo.) was dissolved in de-ionized (DI) water at a concentration of 40 mg/ml (saturation). A calculated amount of sodium hydroxide (1 N solution) was added to the solution and the pH of the final mixtures was adjusted to 10 to precipitate the BP base. The precipitated product was filtered, and further washed with DI water for at least three times. The precipitated product was dried at approximately 40° C. in vacuum for 24 hours.

[2] = cited from earlier work

concentration in de-ionized water (saturation) [1]	SMILES	reported solubility in water [2]
40000 µg/mL	CCCCN1CCCCC1C(=O)Nc1c(C)cccc1C (centres unmarked) [Bupivacaine hydrochloride]	–
–	CC(=O)OCC(COC(C)=O)OC(C)=O [triacetin]	7.17 grams in 100 ml of water
